Data as given in patent publication US20230255943A1, “MMP-9 AND MMP-12 INHIBITION FOR TREATING SPINAL CORD INJURY OR RELATED INJURY TO NEUROLOGICAL TISSUE” (The University of Birmingham, priority 2020, published 2023).

Legend:
MMP-9 = target: T1, MMP-9 (Rattus norvegicus, UniProt P50282); assay: MMP-9 activity after DC injury in rats; format: in vivo; conditions: oral
T1 construct: from tissue; host or cells: Sprague-Dawley rat spinal cord lesion site
Protocol: (§1) The efficacy of oral AZD3342 in the DC injury model in adult Sprague-Dawley rat was also assessed. Animals were divided into 6 groups: (1), Sham (control); (2), DC crush injury+Vehicle; (3), DC crush injury+15 mg/kg AZD3342; (4), DC crush injury+75 mg/kg […]; (5), DC crush injury+375 mg/kg AZD3342; and (6), DC crush injury+Melatonin. Animals were dosed twice daily with oral AZD3342 or vehicle with the experimenters masked to the treatment conditions. These experiments were performed with n=6 rats/group and repeated on 2-3 independent occasions (total n=12-18 rats/group/test).
The lesion site+3 mm either side for mouse (DC and CC SCI) and lesion site+5 mm either side for rat was dissected (n=6 mice/rats/group, 2 independent repeats, total n=12 mice/rats/group) and rapidly frozen in liquid N2 and stored at −80° C. until required. The enzymatic activity of MMP-9 and MMP-12 was determined in 96-well plates using the SensoLyte 520 MMP-9 and MMP-12 fluorimetric assay kit, according to the manufacturer's instructions (AnaSpec, Fremont, Calif., USA). Fluorescence intensity was measured using a Synergy H1 microplate reader (BioTek UK, Swindon, UK) at Ex/Em=490/520 nm.

IL-1β, TNF-α and IL-6 [1] = assay: Proinflammatory pain cytokines after DC injury in rats; format: in vivo; conditions: rat DC injury, oral
Protocol: as §1
The lesion site+5 mm either side (DC and CC SCI, n=6 mice/rats/group, 2 independent repeats (total n=12 mice/rats/group)) was dissected and rapidly frozen in liquid N2 and stored at −80° C. until required. […] The levels of mRNA of MMP-9, MMP-12, IL-1β, TNF-α and IL-6 were determined using pre-validated mouse primer sequences from complimentary DNA prepared from extracted mRNA and qRT-PCR was performed using a LightCycler PCR machine (Roche, Burgess Hill, UK) (M. L. Read, S. Mir, R. Spice, R. J. Seabright, E. L. Suggate, Z. Ahmed, M. Berry, A. Logan, Profiling RNA interference (RNAi)-mediated toxicity in neural cultures for effective short interfering RNA design. J Gene Med 11, 523-534 (2009)). […]

IL-1β, TNF-α and IL-6 [2] = assay: Proinflammatory pain markers after CC SCI in mice; format: in vivo, mouse; conditions: oral gavage immediately after injury
Protocol: CC SCI was administered at the T7-T8 vertebral level after exposure of T6-T9 by laminectomy. The aneurysm clip applicator was oriented in a bilateral direction and an aneurysm clip with a closing force of 24 g was applied extradurally for 60 s, as described previously (A. S. Rivlin, C. H. Tator, Effect of duration of acute spinal cord compression in a new acute cord injury model in the rat. Surg Neurol 10, 38-43 (1978):E. Esposito, I. Paterniti, E. Mazzon, T. Genovese, M. Galuppo, R. Meli, P. Bramanti, S. Cuzzocrea, MK801 attenuates secondary injury in a mouse experimental compression model of spinal cord trauma. BMC Neurosci 12, 31 (2011)).
The urinary bladders were manually emptied twice daily until bladder function was regained. Adult male C57BL6 mice (25-30 g) (Charles River, Margate, UK) were randomly allocated to either: (1), Sham (control; laminectomy but no CC SCI); (2), CC SCI+vehicle; (3), CC SCI+200 mg/kg AZD1236 (oral); (4), CC SCI+5 mg/kg AZD1236 (it). All experiments were performed with n=6 mice/group and repeated on 3 independent occasions (total=18 mice/group/test).
The lesion site+5 mm either side (DC and CC SCI, n=6 mice/rats/group, 2 independent repeats (total n=12 mice/rats/group)) was dissected and rapidly frozen in liquid N2 and stored at −80° C. until required. […] The levels of mRNA of MMP-9, MMP-12, IL-1β, TNF-α and IL-6 were determined using pre-validated mouse primer sequences from complimentary DNA prepared from extracted mRNA and qRT-PCR was performed using a LightCycler PCR machine (Roche, Burgess Hill, UK) (M. L. Read, S. Mir, R. Spice, R. J. Seabright, E. L. Suggate, Z. Ahmed, M. Berry, A. Logan, Profiling RNA interference (RNAi)-mediated toxicity in neural cultures for effective short interfering RNA design. J Gene Med 11, 523-534 (2009)). […] Fold changes were computed using the ΔΔCt method (M. L. Read, S. Mir, R. Spice, R. J. Seabright, E. L. Suggate, Z. Ahmed, M. Berry, A. Logan, Profiling RNA interference (RNAi)-mediated toxicity in neural cultures for effective short interfering RNA design. J Gene Med 11, 523-534 (2009).

[3] = tested on: mice with DC crush injury; assay: CSF biomarkers of SCI (S100β, NSE, GFAP, pNF-H, NF-L); format: in vivo, mouse; conditions: 3 d after injury

T1 sequence (P50282 108-708): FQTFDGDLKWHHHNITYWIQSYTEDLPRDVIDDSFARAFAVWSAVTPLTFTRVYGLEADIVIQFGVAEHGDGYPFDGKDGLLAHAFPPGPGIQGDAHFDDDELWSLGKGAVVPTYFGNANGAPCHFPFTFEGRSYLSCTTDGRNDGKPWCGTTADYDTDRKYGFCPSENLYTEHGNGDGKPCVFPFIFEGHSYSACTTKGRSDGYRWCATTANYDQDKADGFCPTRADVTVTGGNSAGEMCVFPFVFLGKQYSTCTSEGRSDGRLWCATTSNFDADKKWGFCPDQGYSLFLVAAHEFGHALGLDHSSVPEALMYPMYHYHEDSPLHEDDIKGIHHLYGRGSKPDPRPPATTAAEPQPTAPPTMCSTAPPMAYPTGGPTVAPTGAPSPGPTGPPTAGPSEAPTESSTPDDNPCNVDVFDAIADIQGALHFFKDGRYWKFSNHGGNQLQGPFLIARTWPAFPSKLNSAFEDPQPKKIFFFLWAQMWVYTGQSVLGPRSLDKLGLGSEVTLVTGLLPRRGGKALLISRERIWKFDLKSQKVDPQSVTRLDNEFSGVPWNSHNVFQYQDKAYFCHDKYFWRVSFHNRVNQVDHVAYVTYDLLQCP

Row | SMILES | MMP-9 activity (MMP-9) | expression of proinflammatory pain cytokines (IL-1β, TNF-α and IL-6 [1]) | proinflammatory pain markers after CC injury, comparison with pain medications (FIG. 7) (IL-1β, TNF-α and IL-6 [2]) | levels of S100β, NSE, GFAP, pNF-H and NF-L in CSF [3]
1 | C[C@]1(CS(=O)(=O)N2CCC(Oc3ccc(Cl)cn3)CC2)NC(=O)NC1=O [AZD3342, (5S)-5-[4-(5-chloro-pyridin-2-yloxy)-piperidine-1-sulfonylmethyl]-5-methylimidazolidine-2,4-dione] | significantly suppresses | significantly suppressed |  | 
2 | C[C@]1(CS(=O)(=O)N2CC=C(C#Cc3cnc(C4CC4)nc3)CC2)NC(=O)NC1=O [AZD1236] |  |  | significantly attenuates | significantly attenuated all of these biomarkers to near sham-control levels
